What is called pIC50 is the IC50 on a negative log10 scale, so that one unit is a factor of ten.

These results are taken from patent US20120157500A1, “JAK INHIBITION BLOCKS RNA INTERFERENCE ASSOCIATED TOXICITIES” (priority 2009, published 2012).

The subject of experiment [1] is LF01-SSB-induced lethality and visible hematuria. Kind of experiment: Suppression of LF01-SSB-induced lethality and visible hematuria by inhibitors. Particulars: rats; for Rescue effect: Death, +inhibitor/−inhibitor / Rescue effect: Red urine, +inhibitor/−inhibitor: inhibitor 1 hr prior to LF01-SSB 9 mg/kg IV, animals with inhibitor/without inhibitor; for Rescue effect: Death, +inhibitor/−inhibitor: deaths until 96 hr; for Rescue effect: Red urine, +inhibitor/−inhibitor: urine collected over 24 hr. Type of experiment: in vivo. The text has this: Since LF01-siRNA nanoparticles provoked lethality and multifactorial toxicities involving different systems in rats, this offers an in vivo model for pharmacologically probing the mechanism that triggers LF01-siRNA toxicities. We first evaluated the suppression of LF01-SSB-induced lethality and visible hematuria by anti-inflammation drugs and pathway-specific inhibitors of the innate immune system as shown in Table 1. […] Rats were pre-dosed with either a vehicle or one of these reagents using the dosing regimen listed in Table 1, followed by an IV dose of LF01-SSB at 9 mpk 1 hr later, and animals were monitored for lethality for 96 hr. In addition, urine was collected over the course of 24 hr for visual observation of hematuria.
Rats were dosed with PBS or one of these inhibitors 1 hr prior to IV administration of PBS or […] at 9 mg/kg. Urine samples were collected over a course of 24 hr for visual examination of hematuria (red urine). Animals were monitored for lethality until 96 hr post LF01-SSB dose. Unscheduled deaths and cases of visible hematuria in animals receiving LF01-SSB with or without inhibitor pretreatment were scored and presented.
(§1) Rat studies. All animal studies were conducted at AAALAC-accredited Merck Research laboratories' animal facility located at West Point, Pa., and all study protocols were approved by Merck West Point Institutional Animal Care and Use Committee (IACUC). Female Sprague-Dawley (SD) rats obtained from Charles River were used in these studies at an age of 4-6 weeks and with a body weight of 120-160 grams. Anti-inflammation agents were administrated using the dosing regimens listed in Table 1, 1 hr prior to tail vein injection of liposomal siRNA nanoparticles in PBS in a volume of 0.8 ml under normal pressure. At 3 hr post injection of liposomal siRNA, ˜0.2 ml blood was collected by retro-orbital bleed under anesthesia and processed as plasma for the assessment of cytokines. At 24 hr, blood was collected for evaluation of complete blood cell counts (CBC), coagulation parameters and serum chemistry by venipuncture under anesthesia followed by exsanguination, and tissues from liver, spleen and kidney were collected for determination of SSB and ApoB mRNA levels and TUNEL analysis. For visual examination of urine color, rats were housed in metabolic cages to collect urine over a course of 24 hours after injection of liposomal siRNA nanoparticles. Animals were examined 3 times a day for detection of lethality over a course of 96 hours.

Experiment [2] has as its system LF01-SSB-induced toxicities. Kind of experiment: LF01-SSB-induced toxicities in rats with or without inhibitor pretreatment. Type of experiment: in vivo. Particulars: for suppression of cytokine release, elevation of serum transaminases, thrombocytopenia or coagulopathy induced by LF01-SSB: pretreatment before LF01-SSB 3 mg/kg. Here is the method: as §1, with “At 24 hr, blood was collected for evaluation of complete blood cell counts (CBC), coagulation parameters and serum chemistry by venipuncture under anesthesia followed by exsanguination, and tissues from liver, spleen and kidney were collected for determination of SSB and ApoB mRNA levels and TUNEL analysis.” left out
Analyses of rat blood samples. Cytokines in plasma were quantified using a microsphere bead-based, multiplexed assay, Milliplex™ RCYTO-80K-PMX23 (Millipore) which allows simultaneous quantification of 23 rat cytokines including IFNγ, IL-6, MCP-1 and TNFα. All CBC, coagulation and serum chemistry parameters were analyzed by Merck Laboratory of Animal Resources and the Safety Assessment Department at West Point, Pa. CBC was determined on whole blood placed in an EDTA-treated tube using an Advia 120 Hematology Analyzer (Siemens). Coagulation parameters in citrated plasma were assessed with a Behring Coagulation System (Siemens) and serum chemistry evaluation was conducted with an Advia 1800 Clinical Chemistry Analyzer (Siemens).
TUNEL (Terminal deoxynucleotidyl transferase-mediated dUTP-biotin Nick End Labeling). TUNEL staining in tissue sections was performed using a ‘TACS™ TdT-Blue Label in Situ Apoptosis Detection Kit’ (Trevigen). Briefly, 5 μm paraffin embedded sections of liver tissue were deparaffinized, fixed, labeled, and counterstained according to the manufacturer's recommendations. In Situ labeling procedure includes extension of 3′ ends with Biotin-dNTP (TdT Labeling Rxn), followed by additions of Strep-HRP and “TACS-Blue” Label or DAB for color development. TUNEL signal was quantified using the Arial system (Applied Imaging). Quantification of mRNA. qRT-PCR assays were used to quantify SSB and ApoB mRNA levels relative to the housekeeping gene Ppib in lysates prepared from tissues using kits from Applied Biosystems. The catalog numbers are Rn0057621_g1 for SSB, Rn01499054_m1 for ApoB and Rn03302274_m1 for Ppib.

The target in the next experiment is T1, IKK2 (Homo sapiens, UniProt O14920).
T1 sequence (O14920 1-756): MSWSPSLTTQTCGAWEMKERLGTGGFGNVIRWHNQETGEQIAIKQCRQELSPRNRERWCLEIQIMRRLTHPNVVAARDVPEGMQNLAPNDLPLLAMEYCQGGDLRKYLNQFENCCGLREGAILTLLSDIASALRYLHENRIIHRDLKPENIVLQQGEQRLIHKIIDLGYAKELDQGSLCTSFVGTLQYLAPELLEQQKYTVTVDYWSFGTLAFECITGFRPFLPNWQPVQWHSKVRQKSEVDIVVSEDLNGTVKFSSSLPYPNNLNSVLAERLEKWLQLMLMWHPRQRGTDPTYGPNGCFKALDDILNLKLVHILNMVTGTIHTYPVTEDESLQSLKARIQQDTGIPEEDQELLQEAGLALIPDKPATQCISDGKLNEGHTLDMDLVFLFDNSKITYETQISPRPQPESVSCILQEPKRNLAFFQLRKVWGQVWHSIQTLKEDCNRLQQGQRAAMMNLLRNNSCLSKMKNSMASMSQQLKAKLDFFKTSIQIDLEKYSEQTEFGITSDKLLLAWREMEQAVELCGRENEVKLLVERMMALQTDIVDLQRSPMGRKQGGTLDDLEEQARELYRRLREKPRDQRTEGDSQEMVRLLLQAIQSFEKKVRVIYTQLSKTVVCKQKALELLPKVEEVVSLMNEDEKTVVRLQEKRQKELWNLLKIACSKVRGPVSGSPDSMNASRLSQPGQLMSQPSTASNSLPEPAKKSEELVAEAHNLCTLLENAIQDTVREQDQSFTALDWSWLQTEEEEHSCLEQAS
The note with it: Table 1, from former studies; cited from earlier work.

The target in another experiment is T2, IKK1 (Homo sapiens, UniProt O15111).
T2 sequence (O15111 1-745): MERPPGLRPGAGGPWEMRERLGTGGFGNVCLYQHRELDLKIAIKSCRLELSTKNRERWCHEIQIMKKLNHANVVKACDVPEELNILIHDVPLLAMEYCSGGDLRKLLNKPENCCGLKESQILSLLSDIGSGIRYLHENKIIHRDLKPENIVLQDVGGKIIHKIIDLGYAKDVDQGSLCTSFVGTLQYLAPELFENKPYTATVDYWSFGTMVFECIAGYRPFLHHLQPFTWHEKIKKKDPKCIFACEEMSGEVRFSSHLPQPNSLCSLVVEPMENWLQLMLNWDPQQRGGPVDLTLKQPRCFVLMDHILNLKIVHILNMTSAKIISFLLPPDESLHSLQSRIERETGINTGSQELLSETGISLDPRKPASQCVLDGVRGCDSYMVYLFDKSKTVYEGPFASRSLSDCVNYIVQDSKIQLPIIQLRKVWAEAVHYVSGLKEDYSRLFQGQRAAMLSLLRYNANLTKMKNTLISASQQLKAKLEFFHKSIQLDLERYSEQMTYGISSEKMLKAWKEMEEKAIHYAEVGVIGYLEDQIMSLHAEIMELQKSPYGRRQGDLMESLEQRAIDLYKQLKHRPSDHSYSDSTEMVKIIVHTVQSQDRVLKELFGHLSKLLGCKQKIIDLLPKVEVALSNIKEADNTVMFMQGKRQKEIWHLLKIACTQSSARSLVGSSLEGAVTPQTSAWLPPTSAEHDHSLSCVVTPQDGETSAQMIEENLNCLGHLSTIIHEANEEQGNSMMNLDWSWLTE
Particulars: Table 1, from former studies; cited from earlier work.

pIC50: −log10 of the molar value.

In the case of `N=C(N)NN` [Aminoguanidine], in experiment [1], the “Rescue effect: Death, +inhibitor/−inhibitor” value is listed as 4/3 and the “Rescue effect: Red urine, +inhibitor/−inhibitor” value was 2/3. In addition, in experiment [2] (rats), the “suppression of cytokine release, elevation of serum transaminases, thrombocytopenia or coagulopathy induced by LF01-SSB” value is “no appreciable suppression”.

As for `C[C@@H]1CCN(C(=O)CC#N)C[C@@H]1N(C)c1ncnc2[nH]ccc12` [CP-690550], in experiment [1] (pre-dosed 1 hr before LF01-SSB 9 mpk IV, monitored 96 hr), the “effect on LF01-SSB-induced lethality and visible hematuria” value is listed as “prevented”. In addition, in experiment [1], the “Rescue effect: Death, +inhibitor/−inhibitor” value was 0/4 and the “Rescue effect: Red urine, +inhibitor/−inhibitor” value is on record as 0/4. Also, the “effect on LF01-SSB toxic responses (cytokine induction, ALT and AST elevation, thrombocytopenia, elongation of aPTT, hepatic and splenic cell death)” value in experiment [2] (rat, in vivo) is “suppression of toxic responses”.

`Cc1ccc(-c2ncc(Cl)cc2-c2ccc(S(C)(=O)=O)cc2)cn1` [Etoricoxib]: in experiment [1], the “Rescue effect: Death, +inhibitor/−inhibitor” value is listed as 4/3 and the “Rescue effect: Red urine, +inhibitor/−inhibitor” value is 4/4. Besides, the “suppression of cytokine release, elevation of serum transaminases, thrombocytopenia or coagulopathy induced by LF01-SSB” value in experiment [2] (rats) is “no appreciable suppression”.

Consider `N.S=C(S)N1CCCC1` [PDTC], for which, in experiment [1], the “Rescue effect: Death, +inhibitor/−inhibitor” value was 4/5 and the “Rescue effect: Red urine, +inhibitor/−inhibitor” value is listed as 3/5. Also, at IKK2, the pIC50 was 7.70. Further, the negative-log IC50 (pIC50) on IKK1 is 6.40. In experiment [2] (rats, pre-dosed 1 hr prior to LF01-SSB 3 mg/kg IV, 24 hr), the “effect on LF01-SSB-induced coagulopathy (elongation of aPTT)” value is reported as “no mitigation effect”.

In the case of `C[S+]([O-])c1ccc(-c2nc(-c3ccncc3)c(-c3ccc(F)cc3)[nH]2)cc1` (stereo not shown) [SB-203580], in experiment [1], the “Rescue effect: Death, +inhibitor/−inhibitor” value is recorded as 2/5 and the “Rescue effect: Red urine, +inhibitor/−inhibitor” value is on record as 2/5. For the same compound, in experiment [2] (rat, in vivo), the “effect on LF01-SSB-induced coagulopathy (elongation of aPTT)” value was “no mitigation effect”. In experiment [2] (rats, plasma 3 hr post LF01-SSB dose), the “effect on LF01-siRNA induction of IL-6” value is reported as “abrogated”.
